Test results: publication PMC7180738, “Design, Synthesis and Characterization of a New Series of Fluorescent Metabotropic Glutamate Receptor Type 5 Negative Allosteric Modulators” (Molecules, 2020)

Molecular target: T1, mGlu5bR (metabotropic glutamate receptor type 5) (Rattus norvegicus, UniProt P31424)
T1 construct: gene Grm5; mGlu5bR^NL: NanoLuc fused at the N terminus of rat mGlu5bR, expressed in HEK293T cells
Assay: NanoBRET saturation binding in living HEK293T cells, displaced by […] MTEP; also NFAT-luciferase NAM assay
Type: cell-based

T1 sequence (P31424 21-1203): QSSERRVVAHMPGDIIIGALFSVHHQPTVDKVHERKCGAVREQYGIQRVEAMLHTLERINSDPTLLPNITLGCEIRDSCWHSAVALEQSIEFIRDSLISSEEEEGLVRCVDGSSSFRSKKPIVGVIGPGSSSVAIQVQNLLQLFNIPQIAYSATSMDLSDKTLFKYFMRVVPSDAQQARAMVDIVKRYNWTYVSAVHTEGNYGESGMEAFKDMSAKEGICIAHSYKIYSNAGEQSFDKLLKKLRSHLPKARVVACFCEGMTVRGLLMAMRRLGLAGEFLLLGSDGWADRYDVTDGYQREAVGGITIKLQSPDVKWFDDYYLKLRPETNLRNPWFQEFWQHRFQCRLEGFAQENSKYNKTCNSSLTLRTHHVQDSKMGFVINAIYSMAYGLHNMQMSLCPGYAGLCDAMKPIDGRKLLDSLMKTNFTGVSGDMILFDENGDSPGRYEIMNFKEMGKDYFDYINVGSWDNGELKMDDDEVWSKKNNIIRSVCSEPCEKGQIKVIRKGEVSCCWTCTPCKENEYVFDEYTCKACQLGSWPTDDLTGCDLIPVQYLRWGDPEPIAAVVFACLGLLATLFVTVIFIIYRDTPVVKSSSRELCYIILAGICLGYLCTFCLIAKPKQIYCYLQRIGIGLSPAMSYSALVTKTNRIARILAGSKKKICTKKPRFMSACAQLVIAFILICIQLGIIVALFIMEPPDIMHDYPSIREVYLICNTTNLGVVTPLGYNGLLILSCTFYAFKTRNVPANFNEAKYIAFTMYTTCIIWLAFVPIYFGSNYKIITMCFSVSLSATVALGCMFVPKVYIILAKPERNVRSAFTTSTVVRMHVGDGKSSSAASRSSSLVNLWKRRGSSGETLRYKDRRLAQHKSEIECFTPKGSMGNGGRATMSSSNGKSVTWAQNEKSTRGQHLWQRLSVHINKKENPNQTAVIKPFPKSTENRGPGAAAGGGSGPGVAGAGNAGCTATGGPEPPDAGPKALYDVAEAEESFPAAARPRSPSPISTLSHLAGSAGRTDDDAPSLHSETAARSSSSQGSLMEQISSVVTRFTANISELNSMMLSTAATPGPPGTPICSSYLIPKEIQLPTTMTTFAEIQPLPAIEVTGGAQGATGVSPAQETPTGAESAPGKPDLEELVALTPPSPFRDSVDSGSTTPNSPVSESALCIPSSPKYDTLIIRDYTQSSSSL

| SMILES | Kd |
| --- | --- |
| COc1ccc(C2=[N+]3C(=C(CCCCc4cn(CCOCCOCCOCCOCCOCCNC(=O)COc5cncc(C#Cc6csc(C)n6)c5)nn4)c4ccc(-c5ccc(OC)cc5)n4[B-]3(F)F)C=C2)cc1 [4a, N-(17-(4-(4-(5,5-difluoro-3,7-bis(4-methoxyphenyl)-5H-4λ^4,5λ^4-dipyrrolo [1,2-c:2’,1’-f][1,3,2]diazaborinin-10-yl)butyl)-1H-1,2,3-triazol-1-yl)-3,6,9,12,15-pentaoxaheptadecyl)-2-((5-((2-methylthiazol-4-yl)ethynyl)pyridin-3-yl)oxy)acetamide] | 840 ± 740 nM |
| COc1ccc(C2=[N+]3C(=C(CCCCc4cn(CCCCCCCCN(C)CCCCCNC(=O)COc5cncc(C#Cc6csc(C)n6)c5)nn4)c4ccc(-c5ccc(OC)cc5)n4[B-]3(F)F)C=C2)cc1 [4e, N-(5-((8-(4-(4-(5,5-difluoro-3,7-bis(4-methoxyphenyl)-5H-4λ^4,5λ^4-dipyrrolo[1,2-c:2’,1’-f][1,3,2]diazaborinin-10-yl)butyl)-1H-1,2,3-triazol-1-yl)octyl)(methyl)amino)pentyl)-2-((5-((2-methylthiazol-4-yl)ethynyl)pyridin-3-yl)oxy)acetamide] | 1400 ± 1200 nM |
